Results as given in patent US20100160335A1, “PYRIDAZINONE DERIVATIVE AND PDE INHIBITOR CONTAINING THE SAME AS ACTIVE INGREDIENT” (KYORIN PHARMACEUTICAL CO., LTD., priority 2007, published 2010).
Where two headings read alike, the source gives them in different places.

How the values were obtained:
[1] = target: T1, PDE3A catalytic domain (PDE3Acat) (Homo sapiens, UniProt Q14432); assay: Phosphodiesterase inhibitory activity, PDE3 ([3H]cAMP, recombinant enzyme); type: biochemical; conditions: 30° C., 20 minutes, read-out: IC50(μmol/L) PDE3
T1 construct: made in house; host or cells: Sf9 insect cells (baculovirus, Bac-to-Bac / Gateway)

[2] = system: LPS acute inflammation model in rats; assay: LPS acute inflammation model in rats (total leukocytes in BALF); type: in vivo; conditions: BALF 3 hours after LPS; for Inhibition rate (total number of leukocytes in BALF): rat; for inhibition in vivo at 1 mg/kg: Rattus norvegicus, Leukocyte, po, 3 h, read-out: Inhibition rate (total number of leukocytes in BALF)
Description: 1 mg/kg of the compound was orally administered to rat one hour before inhalation of a lipopolysaccharide from E. coli serotype 055:B5 (LPS), and the rat was made to inhale 50 mL of the LPS solution nebulized using a nebulizer for 30 minutes. Then, 3 hours after the LPS inhalation, the rat was euthanized with 20% urethane (5 ml/rat, i.p.). 5 ml of physiological saline for bronchoalveolar lavage was injected into the bronchial tubes and alveoli through the airway, and the bronchial tubes and alveoli were washed three times using a 5 mL syringe. This operation was repeated twice, and the solution was collected as bronchoalveolar lavage fluid (BALF). The collected BALF was centrifuged at 1200 rpm and 4° C. for 10 minutes (Hirtachi; himac CR 5 DL). The pellet was re-suspended in 10 mL of a 0.1% bovine serum albumin-physiological saline, and an equivalent amount of Turk's solution was added thereto to stain leukocytes. The total number of leukocytes was counted under a microscope to calculate the inhibition rate. Further, the indications were as follows: inhibition rate≧90% (++) and 90%>inhibition rate≧50% (+). [ ] means the results of the drug administration after fasting overnight.

[3] = system: histamine-induced bronchoconstriction in guinea pigs; assay: Histamine-induced bronchoconstriction reaction in guinea pigs; type: in vivo; conditions: Cavia porcellus, iv, 0.5 min, guinea pig, measured 30 seconds after administration, read-out: Inhibition rate (histamine-induced bronchoconstriction); for inhibition in vivo at 0.3 mg/kg: compound 0.3 mg/kg, i.v.; for inhibition in vivo at 0.1 mg/kg: compound 0.1 mg/kg, i.v. (values in [ ])
Description: Guinea pigs were anesthetized with pentobarbital (30 mg/kg, i.p.). A cannula for intravenous administration was inserted into the left external jugular vein, a cannula for collecting blood and measuring blood pressure was inserted into the right internal carotid artery, and a tracheal cannula was inserted into the trachea. The guinea pigs were maintained on artificial respiration under the conditions of 60 times/min and 10 mL/kg/stroke. The airflow from the side branch of the tracheal cannula was measured by a bronchospasm transducer (Ugo-Basile) and recorded on a computer via Power Lab (ADInstruments Japan). The guinea pigs were immobilized with gallamine (10 mg/kg, i.v.), and histamine (12.5 μg/kg, i.v.) was administered at 10-minute intervals. After the histamine-induced bronchoconstriction became stable, the compound (0.3 mg/kg, i.v.) was administered. The histamine-induced bronchoconstriction reaction was measured 30 seconds after the compound administration to examine the bronchoconstriction inhibitory activity of the compound. The bronchoconstriction was recorded as the airflow value, and the results were represented by the ratio of the maximum value of the histamine- induced airflow 30 seconds after the administration to the maximum value of the airflow before the administration. Also, the test compounds dissolved in DMSO were used. Further, the indications were as follows: inhibition rate≧90% (+++), 90%>inhibition rate≧80% (++), and 80%>inhibition rate≧70% (+). [ ] means the results in the case of 0.1 mg/kg, i.v.

PDE4Bcat = target: T2, PDE4Bcat (Homo sapiens, UniProt Q07343); assay: Phosphodiesterase inhibitory activity, PDE4 ([3H]cAMP, recombinant enzyme); type: biochemical; conditions: 30° C., 20 minutes, read-out: IC50(μmol/L) PDE4
T2 construct: made in house; host or cells: Sf9 insect cells (baculovirus, Bac-to-Bac / Gateway)

[4] = 1 mg/kg orally one hour before LPS inhalation
[5] = 1 mg/kg orally after fasting overnight (values in [ ]), one hour before LPS inhalation

T1 sequence (Q14432 674-1093 limits assumed): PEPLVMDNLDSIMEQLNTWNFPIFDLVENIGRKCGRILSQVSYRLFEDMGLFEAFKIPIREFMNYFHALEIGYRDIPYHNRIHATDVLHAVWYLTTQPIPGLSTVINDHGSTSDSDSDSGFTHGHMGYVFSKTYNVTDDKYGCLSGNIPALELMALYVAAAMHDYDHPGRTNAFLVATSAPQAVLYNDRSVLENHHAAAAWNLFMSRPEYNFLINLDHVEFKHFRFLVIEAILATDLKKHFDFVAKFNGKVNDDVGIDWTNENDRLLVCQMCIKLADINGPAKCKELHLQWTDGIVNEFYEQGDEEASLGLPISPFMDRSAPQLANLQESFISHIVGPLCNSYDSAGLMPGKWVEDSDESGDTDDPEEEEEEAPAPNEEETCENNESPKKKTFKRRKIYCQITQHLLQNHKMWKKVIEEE
T2 sequence (Q07343 330-659 limits assumed): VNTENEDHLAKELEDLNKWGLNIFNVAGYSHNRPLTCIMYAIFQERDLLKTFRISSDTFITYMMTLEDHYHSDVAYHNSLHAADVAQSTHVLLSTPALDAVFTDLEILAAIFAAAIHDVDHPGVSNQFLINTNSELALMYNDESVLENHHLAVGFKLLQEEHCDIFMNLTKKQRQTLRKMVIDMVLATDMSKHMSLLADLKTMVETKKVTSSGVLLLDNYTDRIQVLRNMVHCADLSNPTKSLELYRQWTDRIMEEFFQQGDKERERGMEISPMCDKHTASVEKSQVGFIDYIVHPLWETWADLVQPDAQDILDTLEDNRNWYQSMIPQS

| Compound | IC50 [1] [µmol/L] | IC50 (PDE4Bcat) [µmol/L] | Inhibition rate (total number of leukocytes in BALF) [2, 4] | inhibition in vivo at 0.3 mg/kg [3] [%] | Inhibition rate (total number of leukocytes in BALF) ([2]; 1 mg/kg orally after fasting overnight (values in [ ]), one hour before LPS inhalation, 1 mg/kg) | inhibition in vivo at 1 mg/kg [2, 5] [%] | inhibition in vivo at 1 mg/kg [2, 4] [%] | inhibition in vivo at 0.1 mg/kg [3] [%] |
| --- | --- | --- | --- | --- | --- | --- | --- | --- |
| CCc1ccc2c(-c3ccc(=O)n(CCCCOc4ccc(C5=NNC(=O)CC5C)c(F)c4F)n3)ccc(OC)c2n1 (stereo not drawn) [Example 289, 6-(2-Ethyl-8-methoxyquinolin-5-yl)-2-[4-[2,3-difluoro-4-(4-methyl-6-oxo-1,4,5,6-tetrahydropyridazin-3-yl)phenoxy]butyl]-2H-pyridazin-3-one] | < 0.1 | < 0.1 | – | ≥ 90 | – | – | 50 to 90 | – |
| CCc1ccc2c(C3=NN(CCCCOc4ccc(C5=NNC(=O)CC5)c(F)c4F)C(=O)CC3C)ccc(OC)c2n1 (stereo not drawn) [Example 299, 6-(2-Ethyl-8-methoxyquinolin-5-yl)-5-methyl-2-[4-[2,3-difluoro-4-(6-oxo-1,4,5,6-tetrahydropyridazin-3-yl)phenoxy]butyl]-4,5-dihydro-2H-pyridazin-3-one] | < 0.1 | < 0.1 | – | – | – | 50 to 90 | – | ≥ 90 |
| CCc1ccc2c(C3=NN(CCCCOc4ccc(C5=NNC(=O)CC5C)cc4)C(=O)CC3C)ccc(OC)c2n1 (stereo not drawn) [Example 312, 6-(2-Ethyl-8-methoxyquinolin-5-yl)-5-methyl-2-[4-[4-(4-methyl-6-oxo-1,4,5,6-tetrahydropyridazin-3-yl)phenoxy]butyl]-4,5-dihydro-2H-pyridazin-3-one] | 0.1 to 1 | < 0.1 | – | – | – | – | 50 to 90 | 70 to 80 |
| COc1ccc(C2=NN(CCCCOc3ccc(C4=NNC(=O)CC4C)cc3)C(=O)CC2C)c2[nH]c(C(F)(F)F)nc12 (stereo not drawn) [Example 314, 6-(4-Methoxy-2-trifluoromethyl-1H-benzimidazol-7-yl)-5-methyl-2-[4-[4-(4-methyl-6-oxo-1,4,5,6-tetrahydropyridazin-3-yl)phenoxy]butyl]-4,5-dihydro-2H-pyridazin-3-one] | < 0.1 | < 0.1 | – | 80 to 90 | – | – | 50 to 90 | – |
| COc1ccc(-c2ccc(=O)n(CCCCOc3ccc(C4=NNC(=O)CC4C)c(F)c3F)n2)c2cccnc12 (stereo not drawn) [Example 319, 2-[4-[2,3-Difluoro-4-(4-methyl-6-oxo-1,4,5,6-tetrahydropyridazin-3-yl)phenoxy]butyl]-6-(8-methoxyquinolin-5-yl)-2H-pyridazin-3-one] | < 0.1 | 0.1 to 1 | – | – | – | 50 to 90 | – | ≥ 90 |
| COc1ccc(-c2ccc(=O)n(CCCCOc3ccc(C4=NNC(=O)CC4)c(F)c3F)n2)c2cccnc12 [Example 320, 2-[4-[2,3-Difluoro-4-(6-oxo-1,4,5,6-tetrahydropyridazin-3-yl)phenoxy]butyl]-6-(8-methoxyquinolin-5-yl)-2H-pyridazin-3-one] | < 0.1 | < 0.1 | – | ≥ 90 | – | 50 to 90 | – | – |

Continued, in another order:

| IC50 [1] [µmol/L] | IC50 (PDE4Bcat) [µmol/L] | Compound | Inhibition rate (total number of leukocytes in BALF) [2, 4] | inhibition in vivo at 0.3 mg/kg [3] [%] | Inhibition rate (total number of leukocytes in BALF) ([2]; 1 mg/kg orally after fasting overnight (values in [ ]), one hour before LPS inhalation, 1 mg/kg) | inhibition in vivo at 1 mg/kg [2, 5] [%] | inhibition in vivo at 1 mg/kg [2, 4] [%] | inhibition in vivo at 0.1 mg/kg [3] [%] |
| --- | --- | --- | --- | --- | --- | --- | --- | --- |
| < 0.1 | < 0.1 | CCc1ccc2c(C3=NN(CCCCOc4ccc(C5=NNC(=O)CC5C)cc4)C(=O)CC3C)ccc(OC)c2n1 (single isomer, unassigned) [Example 340, 6-(2-Ethyl-8-methoxyquinolin-5-yl)-5-methyl-2-[4-[4-(4-methyl-6-oxo-1,4,5,6-tetrahydropyridazin-3-yl)phenoxy]butyl]-4,5-dihydro-2H-pyridazin-3-one] | + (90%>inhibition rate≧50% (+)) | ≥ 90 | – | – | – | – |
| < 0.1 | < 0.1 | CCc1ccc2c(-c3ccc(=O)n(CCCCOc4ccc(C5=NNC(=O)CC5C)c(F)c4F)n3)ccc(OC)c2n1 (single isomer, unassigned; (-)) [Example 323, (−)-6-(2-ethyl-8-methoxyquinolin-5-yl)-2-[4-[2,3-difluoro-4-(4-methyl-6-oxo-1,4,5,6-tetrahydropyridazin-3-yl)phenoxy]butyl]-2H-pyridazin-3-one] | – | 70 to 80 | [++] (inhibition rate≧90% (++)) | – | – | – |
| < 0.1 | < 0.1 | COc1ccc(-c2ccc(=O)n(CCCCOc3ccc(C4=NNC(=O)CC4)c(F)c3F)n2)c2ccc(C)nc12 [Example 271, 2-[4-[2,3-Difluoro-4-(6-oxo-1,4,5,6-tetrahydropyridazin-3-yl)phenoxy]butyl]-6-(8-methoxy-2-methylquinolin-5-yl)-2H-pyridazin-3-one] | – | ≥ 90 | – | 50 to 90 | – | – |
